Converted amounts (≈) assume the structure as drawn. The source made the active and inactive calls. The rule behind the calls is not given here.
Experiments:
Staphylococcus aureus [1] = assay: Antimicrobial activity against Staphylococcus aureus; assay type: functional
Staphylococcus aureus [2] = assay: Antimicrobial activity against Staphylococcus aureus expressing mgrA C12S mutant gene; assay type: functional
Staphylococcus aureus [3] = assay: Antimicrobial activity against Staphylococcus aureus assessed as visible growth at 1.8 ug/ml after 24 hrs in presence of 20 uM paraquat; assay type: functional, organism-based
Staphylococcus aureus [4] = assay: Antimicrobial activity against Staphylococcus aureus expressing mgrA C12S mutant gene assessed as visible growth at 0.6 ug/ml after 24 hrs; assay type: functional, organism-based
Staphylococcus aureus [5] = assay: Antimicrobial activity against Staphylococcus aureus expressing mgrA C12S mutant gene harboring pYJ335-His-mgrA C12S assessed as highest concentration at which growth was visible after 24 hrs; assay type: functional
Staphylococcus aureus [6] = assay: Antimicrobial activity against Staphylococcus aureus expressing mgrA C12S mutant gene harboring Pyj335-His-mgrA C12S assessed as highest concentration at which growth was visible after 24 hrs in presence of 20 uM paraquat; assay type: functional
Staphylococcus aureus [7] = assay: Antimicrobial activity against Staphylococcus aureus expressing mgrA C12S mutant gene harboring plasmid Pyj335 assessed as highest concentration at which growth was visible after 24 hrs; assay type: functional
Staphylococcus aureus [8] = assay: Antimicrobial activity against Staphylococcus aureus expressing mgrA C12S mutant gene harboring pYJ335 assessed as highest concentration at which growth was visible after 24 hrs in presence of 20 uM paraquat; assay type: functional
Staphylococcus aureus [9] = assay: Antimicrobial activity against Staphylococcus aureus expressing mgrAC12S mutant gene harboring plasmid Pyj335-His-mgrA C12S assessed as highest concentration at which growth was visible after 24 hrs; assay type: functional
Staphylococcus aureus [10] = assay: Antimicrobial activity against Staphylococcus aureus expressing mgrAC12S mutant gene harboring plasmid Pyj335-His-mgrA C12S assessed as highest concentration at which growth was visible after 24 hrs in presence of 20 uM paraquat; assay type: functional
Staphylococcus aureus [11] = assay: Antimicrobial activity against Staphylococcus aureus expressing mgrAC12S mutant gene assessed as highest concentration at which growth was visible after 24 hrs; assay type: functional
Staphylococcus aureus [12] = assay: Antimicrobial activity against Staphylococcus aureus expressing mgrAC12S mutant gene assessed as highest concentration at which growth was visible after 24 hrs in presence of 20 uM paraquat; assay type: functional
Staphylococcus aureus [13] = assay: Antimicrobial activity against Staphylococcus aureus assessed as highest concentration at which growth was visible after 24 hrs; assay type: functional
Staphylococcus aureus [14] = assay: Antimicrobial activity against Staphylococcus aureus assessed as highest concentration at which growth was visible after 24 hrs in presence of 20 uM paraquat; assay type: functional
Staphylococcus aureus [15] = assay: Antimicrobial activity against Staphylococcus aureus assessed as visible growth at 1.1 ug/ml after 24 hrs in presence of 25 uM paraquat; assay type: functional, organism-based
Staphylococcus aureus [16] = assay: Antimicrobial activity against Staphylococcus aureus expressing mgrA C12S mutant gene harboring plasmid Pyj335 assessed as visible growth at 1.1 ug/ml after 24 hrs in presence of 25 uM paraquat; assay type: functional, organism-based
Staphylococcus aureus [17] = assay: Antimicrobial activity against Staphylococcus aureus expressing mgrA C12S mutant gene harboring Pyj335-His-mgrA assessed as visible growth at 1.1 ug/ml after 24 hrs in presence of 25 uM paraquat; assay type: functional, organism-based
Staphylococcus aureus [18] = assay: Antimicrobial activity against Staphylococcus aureus expressing mgrA C12S mutant gene harboring Pyj335-His-mgrA C12S assessed as visible growth at 1.1 ug/ml after 24 hrs in presence of 25 uM of paraquat; assay type: functional, organism-based
Staphylococcus aureus [19] = assay: Antimicrobial activity against Staphylococcus aureus expressing mgrA C12S mutant gene assessed as visible growth at 1.8 ug/ml after 24 hrs in presence of 20 uM paraquat; assay type: functional, organism-based
Staphylococcus aureus [20] = assay: Antimicrobial activity against Staphylococcus aureus expressing mgrA C12S mutant gene assessed as visible growth at 2.2 ug/ml after 24 hrs; assay type: functional, organism-based
Staphylococcus aureus [21] = assay: Antimicrobial activity against Staphylococcus aureus expressing mgrA C12S mutant gene harboring plasmid Pyj335 assessed as visible growth at 1.4 ug/ml after 24 hrs; assay type: functional, organism-based
Staphylococcus aureus [22] = assay: Antimicrobial activity against Staphylococcus aureus expressing mgrA C12S mutant gene harboring Pyj335-His-mgrA assessed as visible growth at 1.4 ug/ml after 24 hrs; assay type: functional, organism-based
Staphylococcus aureus [23] = assay: Antimicrobial activity against Staphylococcus aureus assessed as visible growth at 0.35 ug/ml after 24 hrs in presence of 20 uM paraquat; assay type: functional, organism-based
Staphylococcus aureus [24] = assay: Antimicrobial activity against Staphylococcus aureus assessed as visible growth at 0.45 ug/ml after 24 hrs in presence of 20 uM paraquat; assay type: functional, organism-based
Staphylococcus aureus [25] = assay: Antimicrobial activity against Staphylococcus aureus assessed as visible growth at 0.55 ug/ml after 24 hrs in presence of 20 uM paraquat; assay type: functional, organism-based
Staphylococcus aureus [26] = assay: Antimicrobial activity against Staphylococcus aureus expressing mgrA C12S mutant gene assessed as visible growth at 0.35 ug/ml after 24 hrs in presence of 20 uM paraquat; assay type: functional, organism-based
Staphylococcus aureus [27] = assay: Antimicrobial activity against Staphylococcus aureus expressing mgrA C12S mutant gene assessed as visible growth at 0.45 ug/ml after 24 hrs; assay type: functional, organism-based
Staphylococcus aureus [28] = assay: Antimicrobial activity against Staphylococcus aureus expressing mgrA C12S mutant gene assessed as visible growth at 0.45 ug/ml after 24 hrs in presence of 20 uM paraquat; assay type: functional, organism-based
Staphylococcus aureus [29] = assay: Antimicrobial activity against Staphylococcus aureus expressing mgrA C12S mutant gene harboring Pyj335-His-mgrA assessed as visible growth at 0.20 ug/ml after 24 hrs; assay type: functional, organism-based
Staphylococcus aureus [30] = assay: Antimicrobial activity against Staphylococcus aureus expressing mgrA C12S mutant gene harboring plasmid Pyj335 assessed as visible growth at 0.20 ug/ml after 24 hrs in presence of 100 uM hydrogen peroxide; assay type: functional, organism-based
Staphylococcus aureus [31] = assay: Antimicrobial activity against Staphylococcus aureus assessed as visible growth at 0.20 ug/ml after 24 hrs; assay type: functional, organism-based
Staphylococcus aureus [32] = assay: Antimicrobial activity against Staphylococcus aureus expressing mgrA C12S mutant gene harboring Pyj335-His-mgrAC12S assessed as visible growth at 0.20 ug/ml after 24 hrs in presence of 25 uM paraquat; assay type: functional, organism-based
Staphylococcus aureus [33] = assay: Antimicrobial activity against Staphylococcus aureus expressing mgrA C12S mutant gene harboring plasmid Pyj335 assessed as visible growth at 0.45 ug/ml after 24 hrs in presence of 20 uM paraquat; assay type: functional, organism-based
Staphylococcus aureus [34] = assay: Antimicrobial activity against Staphylococcus aureus expressing mgrA C12S mutant gene harboring plasmid Pyj335 assessed as visible growth at 0.65 ug/ml after 24 hrs; assay type: functional, organism-based
Staphylococcus aureus [35] = assay: Antimicrobial activity against Staphylococcus aureus expressing mgrA C12S mutant gene harboring plasmid Pyj335 assessed as visible growth at 0.75 ug/ml after 24 hrs in presence of 20 uM paraquat; assay type: functional, organism-based
Staphylococcus aureus [36] = assay: Antimicrobial activity against Staphylococcus aureus expressing mgrA C12S mutant gene harboring plasmid Pyj335-His-mgrA assessed as visible growth at 0.45 ug/ml after 24 hrs in presence of 20 uM paraquat; assay type: functional, organism-based
Staphylococcus aureus [37] = assay: Antimicrobial activity against Staphylococcus aureus expressing mgrA C12S mutant gene harboring Pyj335-His-mgrA assessed as visible growth at 0.55 ug/ml after 24 hrs; assay type: functional, organism-based
Staphylococcus aureus [38] = assay: Antimicrobial activity against Staphylococcus aureus expressing mgrA C12S mutant gene harboring Pyj335-His-mgrA assessed as visible growth at 0.65 ug/ml after 24 hrs in presence of 20 uM paraquat; assay type: functional, organism-based
Staphylococcus aureus [39] = assay: Antimicrobial activity against Staphylococcus aureus expressing mgrA C12S mutant gene harboring Pyj335-His-mgrA assessed as visible growth at 0.75 ug/ml after 24 hrs; assay type: functional, organism-based

CN[C@H](CC(C)C)C(=O)N[C@H]1C(=O)N[C@@H](CC(N)=O)C(=O)N[C@H]2C(=O)N[C@H]3C(=O)N[C@H](C(=O)N[C@H](C(=O)O)c4cc(O)cc(O)c4-c4cc3ccc4O)[C@H](O)c3ccc(c(Cl)c3)Oc3cc2cc(c3O[C@@H]2O[C@H](CO)[C@@H](O)[C@H](O)[C@H]2O[C@H]2C[C@](C)(N)[C@H](O)[C@H](C)O2)Oc2ccc(cc2Cl)[C@H]1O [VANCOMYCIN]
MIC (Staphylococcus aureus [1]): 1.2 µg/mL (≈ 0.828 µM) | MIC (Staphylococcus aureus [2]): 2.4 µg/mL (≈ 1.66 µM) | Activity (Staphylococcus aureus [3]): Active | Activity (Staphylococcus aureus [4]): inactive | Activity (Staphylococcus aureus [5]): 1.4 µg/mL | Activity (Staphylococcus aureus [6]): 1.4 µg/mL | Activity (Staphylococcus aureus [7]): 2.2 µg/mL | Activity (Staphylococcus aureus [8]): 2.2 µg/mL | Activity (Staphylococcus aureus [9]): 1 µg/mL | Activity (Staphylococcus aureus [10]): 1.8 µg/mL | Activity (Staphylococcus aureus [11]): 2.2 µg/mL | Activity (Staphylococcus aureus [12]): 2.2 µg/mL | Activity (Staphylococcus aureus [13]): 1 µg/mL | Activity (Staphylococcus aureus [14]): 1.4 µg/mL | Activity (Staphylococcus aureus [15]): Active | Activity (Staphylococcus aureus [16]): inactive | Activity (Staphylococcus aureus [17]): Active | Activity (Staphylococcus aureus [18]): Active | Activity (Staphylococcus aureus [19]): inactive | Activity (Staphylococcus aureus [20]): inactive | Activity (Staphylococcus aureus [21]): inactive | Activity (Staphylococcus aureus [22]): Active

O=C(O)c1cn(C2CC2)c2cc(N3CCNCC3)c(F)cc2c1=O [CIPROFLOXACIN]
MIC (Staphylococcus aureus [1]): 0.35 µg/mL (≈ 1.06 µM) | MIC (Staphylococcus aureus [2]): 0.7 µg/mL (≈ 2.11 µM) | Activity (Staphylococcus aureus [23]): inactive | Activity (Staphylococcus aureus [24]): inactive | Activity (Staphylococcus aureus [25]): Active | Activity (Staphylococcus aureus [26]): inactive | Activity (Staphylococcus aureus [27]): inactive | Activity (Staphylococcus aureus [28]): inactive | Activity (Staphylococcus aureus [5]): 0.35 µg/mL | Activity (Staphylococcus aureus [6]): 0.35 µg/mL | Activity (Staphylococcus aureus [7]): 0.65 µg/mL | Activity (Staphylococcus aureus [8]): 0.65 µg/mL | Activity (Staphylococcus aureus [10]): 0.55 µg/mL | Activity (Staphylococcus aureus [11]): 0.65 µg/mL | Activity (Staphylococcus aureus [12]): 0.65 µg/mL | Activity (Staphylococcus aureus [13]): 0.25 µg/mL | Activity (Staphylococcus aureus [14]): 0.45 µg/mL | Activity (Staphylococcus aureus [29]): Active | Activity (Staphylococcus aureus [30]): inactive | Activity (Staphylococcus aureus [31]): Active | Activity (Staphylococcus aureus [32]): Active | Activity (Staphylococcus aureus [33]): inactive | Activity (Staphylococcus aureus [34]): inactive | Activity (Staphylococcus aureus [35]): Active | Activity (Staphylococcus aureus [36]): inactive | Activity (Staphylococcus aureus [37]): Active | Activity (Staphylococcus aureus [38]): Active | Activity (Staphylococcus aureus [39]): Active

Source: ChEMBL document CHEMBL1240316, “An oxidation-sensing mechanism is used by the global regulator MgrA in Staphylococcus aureus” (2006)
